Laboratory results as given in US4209527A, “Benzimidazolone derivatives” (Pfizer Inc., priority 1979, dated 1980).
Counter-ions that a name gives are not always drawn.

Legend:
[1] = toxic side effects / untoward pharmacological side reactions; assay type: in vivo, rat; conditions: diabetic rats, oral, 2.5 mg./kg. to 25 mg./kg.
Source text: As previously indicated, the 3-(substituted methyl)-2-oxo-1-benzimidazolinealkanoic acid final products of this invention are all readily adapted to therapeutic use as aldose reductase inhibitors for the control of chronic diabetic complications, in view of their ability to reduce lens sorbitol levels in diabetic subjects to a statistically significant degree. […] Furthermore, the herein described compounds of this invention can be administered by either the oral or parenteral routes of administration, for the present purposes at hand, without causing any significant untoward pharmacological side reactions to occur in the subject to whom they are so administered. In general, these compounds are ordinarily administered in dosages ranging from about 0.25 mg. to about 25 mg. per kg. of body weight per day, although variations will necessarily occur depending upon the weight and condition of the subject being treated and the particular route of administration chosen.

aldose reductase = molecular target: T1, aldose reductase (Bos taurus, UniProt P16116); test: inhibition of aldose reductase enzyme activity (procedure of S. Hayman et al., modified by K. Sestanj et al.); assay type: biochemical; conditions: 10^-4 M; partially purified enzyme from calf lens
T1 construct: partially purified aldose reductase enzyme obtained from calf lens; from tissue; host or cells: calf lens
Protocol: The activity of the compounds of the present invention, as agents for the control of chronic diabetic complications, is determined by their ability to successfully pass one or more of the following standard biological and/or pharmacological tests, viz., (1) measuring their ability to inhibit the enzyme activity of isolated aldose reductase; (2) measuring their ability to reduce or inhibit sorbitol accumulation in the sciatic nerve of acutely streptozotocinized (i.e., diabetic) rats; (3) measuring their ability to reverse already-elevated sorbitol levels in the sciatic nerve and lens of chronic streptozotocin-induced diabetic rats; (4) measuring their ability to prevent or inhibit galactitol formation in the lens of acutely galactosemic rats and (5) measuring their ability to delay cataract formation and reduce the severity of lens opacities in chronic galactosemic rats.
The following 3-(substituted methyl)-2-oxo-1-benzimidazolinealkanoic acid final products of Examples 15-24 and 26-28, respectively, were tested at a concentration level of 10^-4 M for their ability to reduce or inhibit aldose reductase enzyme activity via the procedure of S. Hayman et al., as described in the Journal of Biological Chemistry, Vol. 240, p. 877 (1965) and as modified by K. Sestanj et al. in U.S. Pat. No. 3,821,383. In every case, the substrate employed was partially purified aldose reductase enzyme obtained from calf lens.

solubility in water = assay type: physicochemical; conditions: amorphous powder, freeze-dried
Protocol: The sodium salt of 3-benzyl-2-oxo-1-benzimidazolineacetic acid is prepared by dissolving said compound in water containing an equivalent amount in moles of sodium hydroxide and then freeze-drying the mixture.

| Structure (SMILES) | signs of toxic side effects [1] | inhibition at 100 µM (aldose reductase) | solubility in water (solubility in water) |
| --- | --- | --- | --- |
| O=C(O)Cn1c(=O)n(Cc2ccccc2)c2ccccc21 [Example 15, 3-benzyl-2-oxo-1-benzimidazolineacetic acid] | without showing any substantial signs of toxic side effects | 84% | – |
| Cc1ccc(Cn2c(=O)n(CC(=O)O)c3ccccc32)cc1 [Example 16, 3-(p-xylyl)-2-oxo-1-benzimidazolineacetic acid] | – | 86% | – |
| O=C(O)Cn1c(=O)n(Cc2ccc(Cl)cc2)c2ccccc21 [Example 17, 3-(p-chlorobenzyl)-2-oxo-1-benzimidazolineacetic acid] | – | 88% | – |
| COc1ccc(Cn2c(=O)n(CC(=O)O)c3ccccc32)cc1 [Example 18, 3-(p-methoxybenzyl)-2-oxo-1-benzimidazolineacetic acid] | – | 88% | – |
| O=C(O)Cn1c(=O)n(Cc2ccc(Cl)c(Cl)c2)c2ccccc21 [Example 19, 3-(3,4-dichlorobenzyl)-2-oxo-1-benzimidazolineacetic acid] | – | 89% | – |
| O=C(O)Cn1c(=O)n(Cc2ccc(Cl)cc2Cl)c2ccccc21 [Example 20, 3-(2,4-dichlorobenzyl)-2-oxo-1-benzimidazolelineacetic acid] | – | 87% | – |
| O=C(O)Cn1c(=O)n(Cc2cccc3ccccc23)c2ccccc21 [Example 21, 3-(α-naphthyl)methyl-2-oxo-1-benzimidazolineacetic acid] | – | 92% | – |
| O=C(O)Cn1c(=O)n(Cc2ccc3ccccc3c2)c2ccccc21 [Example 22, 3-(β-naphthyl)methyl-2-oxo-1-benzimidazolineacetic acid] | – | 86% | – |
| O=C(O)Cn1c(=O)n(CC(=O)c2ccc(Cl)cc2Cl)c2ccccc21 [Example 23, 3-(2,4-dichlorobenzoylmethyl)-2-oxo-1-benzimidazolineacetic acid] | – | 71% | – |
| O=C(O)Cn1c(=O)n(Cc2ccccc2)c2cc(Cl)c(Cl)cc21 [Example 24, 3-benzyl-5,6-dichloro-2-oxo-1-benzimidazolineacetic acid] | – | 89% | – |
| O=C(O)Cn1c(=O)n(Cc2ccc(Cl)c(Cl)c2)c2cc(Cl)c(Cl)cc21 [Example 26, 3-(3,4-dichlorobenzyl)-5,6-dichloro-2-oxo-1-benzimidazolineacetic acid] | – | 82% | – |
| CC(C(=O)O)n1c(=O)n(Cc2ccc(Cl)c(Cl)c2)c2ccccc21 (stereo not drawn) [Example 27, α-[3-(3,4-dichlorobenzyl)-2-oxo-1-benzimidazoline]propionic acid] | – | 91% | – |
| O=C(O)CCn1c(=O)n(Cc2ccc(Cl)c(Cl)c2)c2ccccc21 [Example 28, β-[3-(3,4-dichlorobenzyl)-2-oxo-1-benzimidazoline]propionic acid] | – | 90% | – |
| O=C(O)Cn1c(=O)n(Cc2ccccc2)c2ccccc21 [Example 35, sodium salt of 3-benzyl-2-oxo-1-benzimidazolineacetic acid] | – | – | freely-soluble in water |
